# Read-outs that look alike come from different tables or passages of the source.
# Assays:
# [1] = test system: acute myocardial infarction; conditions: canine model of acute myocardial infarction; cited from earlier work
# [2] = test system: acute myocardial infarction; conditions: rat model of acute myocardial infarction; cited from earlier work
# [3] = test system: acute myocardial infarction; conditions: porcine model of acute myocardial infarction; cited from earlier work
# [4] = test system: patients with CHF; experiment: U.S. Carvedilol Heart Failure Trials: mortality studies in CHF patients; assay type: in vivo, human; conditions: for Risk reduction of mortality / Risk reduction, All Cause Mortality: vs placebo; for All Cause Mortality (%) / Risk reduction, All Cause Mortality: all patients; for All Cause Mortality (%): class II-IV CHF, intention-to-treat, placebo 8.2%; for Risk reduction, All Cause Mortality: 95% CI 42-81
# Excerpt: To determine if β-adrenergic blockade might inhibit the deleterious effects of the sympathetic nervous system on survival in heart failure (CHF), 1052 patients with CHF were prospectively enrolled into a multicenter trial program, in which the patients were randomly assigned (double-blind) to 6-12 months' treatment with placebo (PBO) or carvedilol (CRV). After a common screening period, patients with class II-IV CHF (see next paragraph for the definitions of the classification of CI) and an ejection fraction <0.35 were assigned to one of four protocols based on performance on a 6-minute walk test. PBO or CRV was added to existing therapy with digoxin, diuretics and an ACE inhibitor. All-cause mortality was monitored by a prospectively constituted Data and Safety Monitoring Board (DSMB). After 25 months of enrollment, the DSMB recommended termination of the program because of a favorable effect of CRV on survival. By […], mortality was 8.2% in the PBO group but only 2.9% in the CRV group (P=0.0001. Cochran-Mantel-Haensel analysis). This represented a reduction in risk of death by CRV of 67% (95% CI: 42% to 81%). The treatment effect was similar in patients with class II and class III-IV symptoms. Mortality was reduced in class II patients from 5.9% to 1.9%, a 68% reduction (95% CI: 20% to 97%) [P=0.015,), and in class III-IV patients from 11.0% to 4.2%. a 67% reduction (95% CI 30% to 84%), [P=0.004, a log-rank]. Importantly, the effect of CRV was similar in ischematic heart disease (risk reduced by 67%. P=0.003) and in nonischemic dilated cardiomyopathy (risk reduced by 67%. P=0.014). […] The treatment effect is seen across a broad range of severity and etiology of disease.
# Patients on background therapy with diuretics. ACE inhibitors and/or digoxin were stratified on the basis of baseline […] exercise performance, into one of four trials: • study 220, a dose response study in moderate (NYHA II-IV) CHF with exercise testing as a primary endpoint • study 221, a dose titration study in moderate (NYHA II-IV) CI with exercise testing as a primary endpoint • study 239, a dose titration study in severe (NYHA III-IV) CHF with quality of life as a primary endpoint • study 240, a dose titration study in mild (NYHA II—III) CHF with progression of CHF as a primary endpoint
# Sixty-four centers in the US participated in the trial program. All sites conducted protocols 239 and 240, while 33 performed protocol 220 and 31 performed protocol 221.
# Although each trial had its own individual objectives, the overall program objective defined prospectively was evaluation of all-cause mortality. Based upon a projected enrollment of 1100 patients, the program had 90% power to detect a 50% reduction in mortality (two-sided) between carvedilol and placebo, assuming a mortality rate in the placebo group of 12% over the duration of the trials (α=0.05).
# Randomization was preceded by a screening and challenge period common to the four protocols. The purpose of the screening period was to quality patients for study entry obtain reproducible baseline measurements, and stratify patients into the appropriate trial based on submaximal exercise testing. During the challenge period, patients received low-dose open-label carvedilol (6.25 mg b.i.d.) for two weeks. […] Patients tolerating low-dose carvedilol were then randomized to blinded medication (carvedilol or placebo) with the dose titrated over several weeks in the range of 6.25 to 50 mg b.i.d. (or equivalent level of placebo). The maintenance phase of each study ranged from six to 12 months, after which patients had the option of receiving open-label carvedilol in an extension study.
# The analysis presented below corresponds to the data set on which the DSMB made the recommendation to terminate the trials. Included in this […] analysis are all patients enrolled in the US trials as of Jan. 20, […]; 624 receiving carvedilol and 356 placebo. […]
# [5] = test system: patients with CHF; conditions: treatment of CHF; cited from earlier work
compound,measurement,setting,value
COc1ccccc1OCCNCC(O)COc1cccc2[nH]c3ccccc3c12 (centres unmarked) [Carvedilol],infarct size,[1],markedly reduces infarct size
same,infarct size,[2],markedly reduces infarct size
same,infarct size,[3],markedly reduces infarct size
same,Risk reduction of mortality,"[4]; Class II CHF, 95% CI 20-97",68%
same,Risk reduction of mortality,"[4]; Class II CHF, 95% CI 20-97, listed as CRV",68%
same,Mortality (%),"[4]; Class II CHF, placebo 5.9%",(1.9%)
same,Mortality (%),"[4]; Class II CHF, placebo 5.9%, listed as CRV",1.9%
same,Risk reduction of mortality,"[4]; Class III-IV CHF, 95% CI 30-84",66%
same,Risk reduction of mortality,"[4]; Class III-IV CHF, 95% CI 30-84, listed as CRV",67%
same,Mortality (%),"[4]; Class III-IV CHF, placebo 11.0%",(4.2%)
same,Mortality (%),"[4]; Class III-IV CHF, placebo 11.0%, listed as CRV",4.2%
same,Risk reduction of mortality,"[4]; Ischemic Etiology, 95% CI 32-85",67%
same,Risk reduction of mortality,"[4]; Ischemic Etiology, 95% CI 32-85, listed as CRV",67%
same,Mortality (%),"[4]; Ischemic Etiology, placebo 8.9%",(3.2%)
same,Risk reduction of mortality,"[4]; Non-Ischemic Etiology, 95% CI 20-86",67%
same,Risk reduction of mortality,"[4]; Non-Ischemic Etiology, 95% CI 20-86, listed as CRV",67%
same,Mortality (%),"[4]; Non-Ischemic Etiology, placebo 7.3%",(2.5%)
same,All Cause Mortality (%),[4],(2.9%)
same,All Cause Mortality (%),[4]; listed as CRV,2.9%
same,"Risk reduction, All Cause Mortality",[4],67%
same,"Risk reduction, All Cause Mortality",[4]; listed as CRV,67%
CC(C)NCC(O)COc1ccc(COCCOC(C)C)cc1 (centres unmarked) [bisoprolol],"mortality, drug-treated vs placebo-treated patients",[5],no difference in mortality
COCCc1ccc(OCC(O)CNC(C)C)cc1 (centres unmarked) [metoprolol],"mortality, drug-treated vs placebo-treated patients",[5],no difference in mortality

# Reference: patent USRE40707E1, “Use of carbazole compounds for the treatment of congestive heart failure” (SB Pharmco Puerto Rico Inc., priority 1995, dated 2009)
